Results published in patent publication US20220127298A1, “THERMOSPOROTHRIX HAZAKENSIS-DERIVED ANTIBACTERIALLY ACTIVE SUBSTANCE” (KENNAN EISEI KOGYO CO., LTD., priority 2019, published 2022).

What was measured:
[1] = test system: Geobacillus stearothermophilus ATCC 7953; test: Antibacterial activity test in changing pH, paper disk assay; assay type: cell-based; settings: 1000 γ in methanol, 50 μL on paper disk, 50° C., 18 hours
Description: Into a 50-mL Falcon tube, 20 mg of HK-1 was weighed out using an electric balance, and therein 20 mL of methanol (1000 γ) was added followed by gentle stirring. Each 3.3 mL was aliquoted to totally two 15-mL Falcon tubes. To one of them 20 μL of 1 N sodium hydroxide was added followed by gentle stirring. The pH was tested with a pH test paper. Ten (10) μL of each sample was subjected to HPLC. The HPLC analysis conditions are as follows. The stability of a compound is regarded as one of the important information for evaluating a substance. This is because, even if the external environment changes, insofar as the compound itself is stable, it can be applied in various situations, and the information leads to acquisition of biological knowledges. Therefore, the stability of the activity was examined by measuring antibacterial activities with respect to G. stearothermophilus, and B. subtilis using the solution prepared in the above “1. Antibacterial spectrum test”. (1) Each 10 mL of the (autoclave treated) LB culture medium (see Example 1) was dispensed into two long test tubes. (2) Into each long test tube, 50 μL of a commercially available G. stearothermophilus spore suspension was seeded. […] The culture medium was taken out from the incubator, and the diameter of the inhibition ring was measured with calipers (Kanon hardened stainless 150 mm).

[2] = test system: Geobacillus stearothermophilus ATCC 7953; test: Antibacterial spectrum test, paper disk assay; assay type: cell-based; settings: 50 μL of 1000 γ solution in methanol, LB agar, 60° C., 18 hours
Description: The antibacterial activity of HK-1 was assayed using a paper disk against the following bacterial bodies. A piece of ice was taken out of a glycerol stock of G. stearothermophilus stored at -80° C. and […] inoculated on the LB agar culture medium (see Example 1) with a toothpick. This was incubated at 60° C. for 18 hours. After the incubation, 1⁄2 platinum loop of the culture was harvested and suspended in 500 μL of sterile water. The bacterial suspension was diluted 10-fold with sterile water. Onto a LB agar culture medium, 100 μL of the diluted suspension was dropped and spread until it was dried up. A piece of paper disk was placed on a filter paper, onto which 50 μL of a HK-1 solution adjusted to 1000 γ with methanol was dropped and dried. Then the disk was placed on the agar culture medium coated with the bacterial body. After incubation at 60° C. for 18 hours, the diameter of the inhibition ring was measured.

[3] = test system: Thermosporothrix hazakensis SK20-1^T NBRC 105916^T; test: Antibacterial spectrum test, paper disk assay; assay type: cell-based; settings: 50 μL of 1000 γ solution in methanol, YS medium, 50° C., 2 days
Description: (§1) The antibacterial activity of HK-1 was assayed using a paper disk against the following bacterial bodies.
(§2) A piece of ice out of a glycerol stock of S. griseus stored at −80° C. was planarly inoculated on the YMPD agar culture medium with a toothpick. This was incubated at 28° C. for 5 days. After the incubation, a small amount of spore was scraped off with a swab, and planarly inoculated on the YMPD culture medium. A piece of paper disk was placed on a filter paper, onto which 50 μL of a HK-1 solution adjusted to 1000 γ with methanol was dropped and dried. Then the disk was placed on the agar culture medium coated with the bacterial body. After incubation at 28° C. for 4 days, the diameter of the inhibition ring was measured.
(§3) Assays were performed in the same manner as in 3 above, except that the incubation conditions were changed to YS culture medium (see Example 1), 50° C., and 2-day period.

[4] = test system: Thermosporothrix narukonensis F4^T; test: Antibacterial spectrum test, paper disk assay; assay type: cell-based; settings: 50 μL of 1000 γ solution in methanol, YS medium, 50° C., 2 days
Description: as §1, §2, §3

[5] = pH stability by HPLC analysis; assay type: physicochemical; settings: methanol solution 1000 γ
Description: Into a 50-mL Falcon tube, 20 mg of HK-1 was weighed out using an electric balance, and therein 20 mL of methanol (1000 γ) was added followed by gentle stirring. Each 3.3 mL was aliquoted to totally two 15-mL Falcon tubes. To one of them 20 μL of 1 N sodium hydroxide was added followed by gentle stirring. The pH was tested with a pH test paper. Ten (10) μL of each sample was subjected to HPLC. The HPLC analysis conditions are as follows. Column: CAPCELL PAK Cis 5 μm, 4.6 mm 1. D×150 mm Mobile phase A: 0.1% aqueous solution of trifluoroacetic acid Mobile phase B: acetonitrile Temperature of thermostatic chamber for column: 40° C. Flow velocity: 1 mL/min UV: 254 nm Elution method: concentration gradient • 0 min to 18 min, B concentration 50% to 100% • 18.1 min to 23 min, B concentration 100% • 23.1 min to 25 min, B concentration 50%

[6] = test system: Geobacillus stearothermophilus ATCC 7953; test: Heat resistance test A, antibacterial activity as index; assay type: cell-based; settings: 1000 γ solution, pH adjusted to 9, 98° C. for 5 min; FIG. 4-1
Description: (§4) Examples of a typical test for measuring the stability of a compound include pH stability test, as well as heat resistance test, and storage test. This information is also regarded as important in evaluating the compound as described above. Using the sample of HK-1 prepared in the above “3. Antibacterial activity test in changing pH”, experiments were carried out to examine whether the compound is stable or not using G. stearothermophilus and B. subtilis guided by the antibacterial activity as the index.
(§5) Three hundred (300) μL of the 1000 γ HK-1 solution (pH 9, and pH not adjusted) prepared in the above “3. Antibacterial activity test in changing pH” was dispensed into a 1 mL microtube. The opening of the tube was closed hermetically with parafilm and heated in the bath at 98° C. for 5 min. An assay was performed using the culture medium for assaying antibacterial activity prepared in “3. Antibacterial activity test in changing pH” above.

[7] = test system: Bacillus subtilis NBRC 3134^T; test: as above; assay type: cell-based; settings: 1000 γ solution, pH adjusted to 9, 98° C. for 5 min; FIG. 4-1
Description: as §4, §5

antibacterial effect after heating at high temperature [6]: the antibacterial effect was not lost | antibacterial effect after heating at high temperature [7]: the antibacterial effect was not lost
SMILES: COc1cc(OOc2cc(OC)c3c(c2-c2c(O)c(Cl)c(C)c4c2C(O)c2c(Cl)c(O)cc(O)c2C4=O)C(OC2OC(C)C(O)C2O)c2c(Cl)c(OC)c(Cl)c(C)c2C3=O)c(-c2c(O)c(Cl)c(C)c3c2C(O)c2c(Cl)c(O)cc(O)c2C3=O)c2c1C(=O)c1c(C)c(Cl)c(OC)c(Cl)c1C2OC1OC(C)C(O)C1O (stereo not drawn) [HK-1]
inhibition ring diameter ([1]; solution with pH adjusted to 9): 22.6 mm | inhibition ring diameter ([1]; solution with pH not adjusted): 21.9 mm | inhibition ring diameter [2]: 34.0 mm | inhibition ring diameter [3]: 10.0 mm | inhibition ring diameter [4]: 10.0 mm | pH stability (degradation peak in HPLC analysis) ([5]; pH adjusted to 9 with 1 N sodium hydroxide): stable with no recognizable degradation peak | pH stability (degradation peak in HPLC analysis) ([5]; pH not adjusted): stable with no recognizable degradation peak
